Measurements published in patent EP0629585A1, “Process of inhibition oxalate scale formation” (MONSANTO EUROPE S.A., priority 1993, dated 1994).
Structures can show the parent of a compound that is named as a salt.

Test: Calcium oxalate scale inhibition test under conditions similar to an alkaline pulp bleaching process
Details: dosage 25 ppm active acid, 45°C, pH 9.5, 100 ppm calcium, 80 ppm oxalates
Method: The preferred oxalate scale inhibiting compound of the invention, i.e. the compound of formula I above, was tested alongside various members of the known "DEQUEST" family of phosphonate inhibitors under conditions similar to those encountered in an alkaline pulp bleaching process. The word "DEQUEST" is a Registered Trade Mark.
The temperature of the aqueous solution used in the tests was maintained at 45°C and the pH at 9.5 (adjusted using an ammonium hydroxide/ammonium chloride buffering agent). Tests times of 2.5, 8 and 24 hours were deployed, and concentrations of 100 ppm of calcium and 80 ppm of oxalates were present in the aqueous solution. A dosage rate of inhibitor of 25 ppm was used in each test. The "DEQUEST" scale inhibitors used in the tests were designated A to E and were as follows: • A - DEQUEST 2066 (diethylenetriaminepenta(methylenephosphonic acid) or its salts) • B - DEQUEST 2046 (ethylenediaminetetra(methylenephosphonic acid) or its salts) • C - DEQUEST 2000 (aminotri(methylenephosphonic acid) or its salts) • D - DEQUEST 2010 (1-hydroxyethylene(1,1 diphosphonic acid)) • E - DEQUEST 2056 (hexamethylenediaminetetra(methylenephosphonic acid) or its salts). TABLE
The results above express the scale-inhibiting effects of the various inhibitors in terms of percentage inhibition.

Row | Compound | Percentage Inhibition (time 2.5 hrs) | Percentage Inhibition (time 8 hrs) | Percentage Inhibition (time 24 hrs)
1 | hexamethylenediaminetetra(methylenephosphonic acid) or its salts | 34 |  | 
2 | diethylenetriaminepenta(methylenephosphonic acid) or its salts | 64 | 38 | 24
3 | CC(O)(P(=O)(O)O)P(=O)(O)O [D, 1-hydroxyethylene(1,1 diphosphonic acid)] | 49 |  | 
4 | O=P(O)(O)CN(CP(=O)(O)O)CP(=O)(O)O [C, aminotri(methylenephosphonic acid) or its salts] | 51 |  | 
5 | ethylenediaminetetra(methylenephosphonic acid) or its salts [B] | 50 | 23 | 14
6 | O=P(O)(O)CN(CCCN(CP(=O)(O)O)CP(=O)(O)O)CCN(CCCN(CP(=O)(O)O)CP(=O)(O)O)CP(=O)(O)O [(I)] | 100 | 92 | 49
